Results published in DBAASP.
Converted amounts (≈) assume the structure as drawn. “And” between values parts separate entries of the source, which are not always exact repeats. Equal values may be shown once. Each block holds one molecule with its values, some of them ahead of it.

Assays:
Assay in all cases: ≥ marks a high value that may be exact or a test limit, other limits are often not marked, values filed in µg/mL are converted to µM
[1] = test system: Klebsiella aerogenes MTCC 111
[2] = test system: Enterococcus faecalis MTCC 439
[3] = test system: Alcaligenes faecalis MTCC 1937
[4] = test system: Haemophilus influenzae MTCC 621
[5] = test system: Acinetobacter baumannii MTCC 9829
[6] = test system: Stenotrophomonas maltophilia MTCC 1890
[7] = test system: Proteus mirabilis MTCC 3158
[8] = test system: Escherichia coli K12 MG1655
[9] = test system: Alkalihalobacillus alcalophilus MTCC 860
[10] = test system: Salmonella enterica MTCC 9844
[11] = test system: Salmonella enterica subsp. enterica serovar Typhimurium ATCC 14028
[12] = test system: Proteus vulgaris MTCC 1771
[13] = test system: Bordetella bronchiseptica MTCC 6837
[14] = test system: Shigella flexneri MTCC 1457
[15] = test system: Shigella boydii MTCC 11947
[16] = test system: Staphylococcus aureus MTCC 3160
[17] = test system: Klebsiella oxytoca MTCC 2275
[18] = test system: Staphylococcus haemolyticus MTCC 3383
[19] = test system: Klebsiella pneumoniae MTCC 7407
[20] = test system: Pseudomonas aeruginosa MTCC 3542
[21] = test system: Pluralibacter gergoviae MTCC 3826
[22] = test system: Citrobacter koseri MTCC 1657
[23] = test system: Corynebacterium glutamicum MTCC 2679
[24] = test system: Vibrio cholerae MTCC 3904
[25] = test system: Citrobacter freundii MTCC 1658
Escherichia coli C25 = test system: Escherichia coli C25
[26] = test system: Staphylococcus aureus ATCC 25923
[27] = test system: Staphylococcus epidermidis KCTC 1917
[28] = test system: Pseudomonas aeruginosa ATCC 15692
[29] = test system: Escherichia coli ATCC 25922
[30] = test system: Listeria monocytogenes KCTC 19111
[31] = test system: Salmonella typhimurium KCTC 1926
Escherichia coli = test system: Escherichia coli
[32] = test system: Salmonella enterica serovar Tennessee
[33] = test system: Escherichia coli JW0368 ΔsbmA
Escherichia coli MC1041 = test system: Escherichia coli MC1041
[34] = test system: Salmonella enterica subsp. enterica serovar Infantis
Escherichia coli JJ2489 = test system: Escherichia coli JJ2489
[35] = test system: Salmonella enterica subsp. enterica serovar Enteritidis MH91989
Escherichia coli JW0013 = test system: Escherichia coli JW0013
Escherichia coli BW25113 = test system: Escherichia coli BW25113
[36] = test system: Salmonella enterica subsp. enterica serovar Newport
Escherichia coli J2210 = test system: Escherichia coli J2210
[37] = test system: Salmonella typhimurium SL1344
[38] = test system: Escherichia coli JW2778 ΔygdD
Escherichia coli MG1655 = test system: Escherichia coli MG1655
Vibrio cholerae = test system: Vibrio cholerae
[39] = test system: Staphylococcus aureus ATCC 43300
[40] = test system: Staphylococcus aureus MTCC 9542
[41] = test system: Enterococcus faecalis ATCC 29212
[42] = test system: Pseudomonas aeruginosa ATCC 27853
[43] = test system: Bacillus subtilis MTCC 14416

Compound: CSCC[C@H](NC(=O)[C@H](CCCN=C(N)N)NC(=O)[C@H](Cc1cnc[nH]1)NC(=O)[C@H](Cc1c[nH]c2ccccc12)NC(=O)[C@H](CCCN=C(N)N)NC(=O)CNC(=O)[C@H](Cc1c[nH]c2ccccc12)NC(=O)[C@H](CCCN=C(N)N)NC(=O)[C@@H](N)CCCN=C(N)N)C(=O)N[C@@H](CCCN=C(N)N)C(=O)N[C@@H](CCCN=C(N)N)C(=O)N[C@@H](CCCN=C(N)N)C(=O)NCC(=O)N[C@@H](CCCN=C(N)N)C(=O)O [RRWGRWHRMRRRGR]
MIC [1]: ≥ 63.3 µM | MIC [2]: ≥ 63.3 µM | MIC [3]: ≥ 63.3 µM | MIC [4]: ≥ 63.3 µM | MIC [5]: ≥ 63.3 µM | MIC [6]: ≥ 63.3 µM | MIC [7]: ≥ 63.3 µM | MIC [8]: ≥ 63.3 µM | MIC [9]: 15.8 µM (≈ 32 µg/mL) | MIC [10]: ≥ 63.3 µM | MIC [11]: > 63.3 µM | MIC [12]: ≥ 63.3 µM | MIC [13]: ≥ 63.3 µM | MIC [14]: 31.6 µM (≈ 64 µg/mL) | MIC [15]: 31.6 µM (≈ 64 µg/mL) | MIC [16]: ≥ 63.3 µM | MIC [17]: 31.6 µM (≈ 64 µg/mL) | MIC [18]: 1.98 µM (≈ 4 µg/mL) | MIC [19]: ≥ 63.3 µM | MIC [20]: ≥ 63.3 µM | MIC [21]: ≥ 63.3 µM | MIC [22]: 7.91 µM (≈ 16 µg/mL) | MIC [23]: 1.98 µM (≈ 4 µg/mL) | MIC [24]: ≥ 63.3 µM | MIC [25]: ≥ 63.3 µM

MIC (Escherichia coli C25): ≥ 63 µM | MIC [26]: 16 µM (≈ 31.7 µg/mL)
Compound: CC[C@H](C)[C@H](NC(=O)CNC(=O)[C@H](CCCN=C(N)N)NC(=O)[C@H](Cc1ccc(O)cc1)NC(=O)[C@@H](NC(=O)[C@H](CCCN=C(N)N)NC(=O)[C@H](Cc1ccccc1)NC(=O)[C@H](Cc1c[nH]c2ccccc12)NC(=O)[C@H](CCCCN)NC(=O)[C@@H](N)CCCCN)C(C)C)C(=O)N[C@@H](Cc1ccc(O)cc1)C(=O)N[C@@H](CCCN=C(N)N)C(=O)N[C@@H](CCCN=C(N)N)C(=O)N[C@@H](CCCN=C(N)N)C(N)=O [KKWFRVYRGIYRRR]

MIC [27]: 8 µM (≈ 9.83 µg/mL) | MIC [28]: 8 µM (≈ 9.83 µg/mL) | MIC [29]: 4 µM (≈ 4.91 µg/mL) | MIC [30]: 8 µM (≈ 9.83 µg/mL) | MIC [31]: 8 µM (≈ 9.83 µg/mL) | MIC [26]: 64 µM (≈ 78.6 µg/mL)
Compound: NCCCC[C@H](NC(=O)[C@H](Cc1ccc(O)cc1)NC(=O)[C@H](Cc1c[nH]c2ccccc12)NC(=O)[C@H](CCCCN)NC(=O)[C@H](CCCCN)NC(=O)[C@H](Cc1ccc(O)cc1)NC(=O)[C@H](Cc1c[nH]c2ccccc12)NC(=O)[C@@H](N)CCCCN)C(N)=O [KWYKKWYK]

MIC (Escherichia coli): 0.197 µM and 0.3 µM | MIC [32]: 0.3 µM (≈ 0.698 µg/mL) | MIC [33]: 0.834 µM (≈ 1.94 µg/mL) | MIC (Escherichia coli MC1041): 0.15 µM (≈ 0.349 µg/mL) | MIC [34]: 0.3 µM (≈ 0.698 µg/mL) | MIC (Escherichia coli JJ2489): 0.104 µM (≈ 0.242 µg/mL) | MIC [35]: 0.6 µM (≈ 1.4 µg/mL) | MIC (Escherichia coli JW0013): 0.075 µM (≈ 0.175 µg/mL) | MIC (Escherichia coli BW25113): 0.075 µM (≈ 0.175 µg/mL) | MIC [36]: 0.075 µM (≈ 0.175 µg/mL) | MIC (Escherichia coli J2210): 0.208 µM (≈ 0.484 µg/mL) | MIC [37]: 0.15 µM (≈ 0.349 µg/mL) | MIC [38]: 0.208 µM (≈ 0.484 µg/mL)
Compound: CC[C@H](C)[C@H](NC(=O)[C@@H]1CCCN1C(=O)[C@H](CCCCN)NC(=O)[C@@H]1CCCN1C(=O)[C@@H]1CCCN1C(=O)[C@@H](NC(=O)[C@@H]1CCCN1C(=O)[C@H](CCCN=C(N)N)NC(=O)[C@@H]1CCCN1C(=O)[C@H](CCCCN)NC(=O)[C@H](Cc1ccc(O)cc1)NC(=O)[C@H](CO)NC(=O)CNC(=O)[C@H](CCCCN)NC(=O)[C@H](CC(=O)O)NC(=O)[C@@H](N)C(C)C)[C@@H](C)O)C(=O)N[C@@H](Cc1ccc(O)cc1)C(=O)N[C@@H](CC(N)=O)C(=O)N[C@@H](CCCN=C(N)N)C(=O)N[C@@H](CC(N)=O)C(=O)O [VDKGSYKPRPTPPKPIYNRN]

MIC (Escherichia coli MG1655): ≥ 42.9 µM | MIC [39]: 10.7 µM (≈ 25 µg/mL) | MIC [40]: 5.37 µM (≈ 12.5 µg/mL) | MIC [41]: 21.5 µM (≈ 49.9 µg/mL) | MIC [42]: > 42.9 µM | MIC [43]: 21.5 µM (≈ 49.9 µg/mL)
Compound: CC[C@H](C)[C@@H]1NC(=O)[C@H](CCCCN)NC(=O)[C@@H](NC(=O)[C@H](CC(C)C)NC(=O)[C@@H](NC(=O)[C@H](CCC(N)=O)NC(=O)[C@@H]2CCCN2C(=O)[C@H](CC(C)C)NC(=O)[C@H](Cc2ccccc2)NC(=O)[C@H](CC(N)=O)NC(=O)[C@H](C)NC(=O)[C@H](C)NC(=O)[C@H](CC(C)C)NC(=O)CNC(=O)[C@H](C)NC(=O)[C@@H](NC(=O)[C@@H](N)Cc2c[nH]c3ccccc23)[C@@H](C)CC)[C@@H](C)CC)CSSC[C@@H](C(N)=O)NC(=O)[C@H](CCCCN)NC(=O)[C@H](CCCN=C(N)N)NC(=O)[C@H](C)NC1=O [WIAGLAANFLPQILCKIARKC]
MIC (Vibrio cholerae): 10.7 µM (≈ 25 µg/mL)
